According to patent US9181176B2, “7-[3,5-dihydroxy-2-(3-hydroxy-5-phenyl-pent-1-enyl)-cyclopentyl]-N-ethyl-hept-5-enamide (bimatoprost) in crystalline form II, methods for preparation, and methods for use thereof” (Allergan, Inc., priority 2009, dated 2015):
Each block holds one compound with its values, some of them ahead of it.

Key:
Format in all cases: physicochemical
[1] = Determination of the aqueous solubility of polymorph II; details: 0.4% suspension rotated continuously over a weekend; supernatants assayed by HPLC
Protocol: The aqueous solubility of polymorph II was determined by preparing in duplicate a 0.4% suspension of a formal stability sample (lot X10510 stored at 25° C./60% RH for 23 months, confirmed as polymorph II). Temperature Program 1 (hold for 1.0 minute at 30° C. and then heat from 30° C. to 85° C. at 2.0° C. per minute), was used to test the 23-month stability sample by DSC to reconfirm the presence of only polymorph II (which was, indeed, the case). The suspension was allowed to rotate continuously over a weekend. The supernatants were assayed by HPLC using X11192 Secondary Reference Standard to determine the drug contents. […] Since the active pharmaceutical ingredient will be used in a formulation at a concentration that is only one-tenth of the aqueous solubility of the active pharmaceutical ingredient (as either polymorph), there is no effect of crystal habit on product characteristics or manufacturing process.

[2] = Solid-state polymorphic transformation in laboratory stress study samples (DSC); details: 40° C., 70-day time-point
Protocol: Two Bimatoprost lots (X11192 and X10510) were subjected to a variety of experimental stress conditions at 40° C. (see Table 6). The experimental design included ambient air and argon headspaces, exposure to fluorescent light, and different surface-to-volume ratios. The 70-day time-point samples were analyzed by HPLC and DSC.

[3] = Solid-state polymorphic transformation in samples of the formal stability program (DSC, IR); details: stored 18 months at 25° C./60% RH
Protocol: The colored particle was separated from the white drug substance, and DSC was performed on both. In order to determine whether bimatoprost spontaneously converts from polymorph I to polymorph II at elevated temperatures (i.e. higher than the prescribed storage temperature), a number of other lots in the formal stability program were also analyzed by DSC. All the formal stability samples tested consisted of polymorph II. Since the control (frozen) samples from the same lots were previously analyzed by DSC with the results showing that none of them contained polymorph II, there is a clear indication that a polymorphic transformation had occurred under the stability conditions employed.

- aqueous solubility [1]: 0.3 % w/w
SMILES: CCNC(=O)CCCC=CCC1C(O)CC(O)C1C=CC(O)CCc1ccccc1 (stereo not shown) [polymorph II, 7-[3,5-dihydroxy-2-(3-hydroxy-5-phenyl-pent-1-enyl)-cyclopentyl]-N-ethyl-hept-5-enamide]

- polymorphic form after stress (DSC) ([2]; air or argon headspace, light or dark): polymorph I
SMILES: CCNC(=O)CCC/C=C\C[C@@H]1[C@@H](/C=C/[C@@H](O)CCc2ccccc2)[C@H](O)C[C@@H]1O [X11192, bimatoprost]

SMILES: CCNC(=O)CCC/C=C\C[C@@H]1[C@@H](/C=C/[C@@H](O)CCc2ccccc2)[C@H](O)C[C@@H]1O [X10510, bimatoprost]
- polymorphic form after stress (DSC) ([2]; ambient air headspace, regardless of light exposure): partial morphological conversion in which both polymorphs I and II were present simultaneously
- polymorphic form after storage (DSC and IR) [3]: yielded substantial amounts of polymorph II
